pKi: −log10 of the molar value. Several values for one entry are separate records, joined by “and”; a condition that tells them apart may be missing. Identical values can stand only once. Like-named read-outs stand apart in the source and are kept apart here.
What was measured:
[1] = system: AasS; test: In vitro enzymatic activity of AasS (acyl-ACP formation, conformationally-sensitive urea PAGE, ImageJ semi-quantitation); type: biochemical, Vibrio harveyi
[2] = target: T1, AasS (Vibrio harveyi, UniProt Q00IB3); test: Microscale thermophoresis (MST), wild-type AasS; type: binding; details: MST
T1 sequence (Q00IB3 entry or part of it): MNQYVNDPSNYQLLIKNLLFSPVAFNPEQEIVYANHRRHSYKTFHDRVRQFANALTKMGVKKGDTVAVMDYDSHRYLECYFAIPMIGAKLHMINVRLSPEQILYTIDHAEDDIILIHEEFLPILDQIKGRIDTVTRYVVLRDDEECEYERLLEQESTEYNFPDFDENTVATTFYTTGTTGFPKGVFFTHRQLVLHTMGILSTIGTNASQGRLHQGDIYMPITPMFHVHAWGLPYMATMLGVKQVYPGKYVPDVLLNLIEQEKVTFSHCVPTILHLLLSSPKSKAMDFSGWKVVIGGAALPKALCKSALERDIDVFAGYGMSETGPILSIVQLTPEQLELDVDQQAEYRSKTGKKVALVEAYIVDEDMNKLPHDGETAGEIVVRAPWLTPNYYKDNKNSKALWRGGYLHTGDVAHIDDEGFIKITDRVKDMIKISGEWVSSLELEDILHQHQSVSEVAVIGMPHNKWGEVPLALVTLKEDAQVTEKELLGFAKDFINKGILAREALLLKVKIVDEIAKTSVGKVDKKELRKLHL
Description: To validate poor binding of AasS(D411A) to C10 fatty acyl adenylate observed in our ITC assays, the relatively-more sensitive approach of microscale thermophoresis (MST) was additionally applied here as Jerabek-Willemsen et al. described with minor alteration. Using the Protein Labeling Kit (Protein Labeling Kit RED-NHS 2nd Generation, Nano Temper Technology), both the wild-type AasS and its D411A mutant were fluorescently labelled in the MST buffer (150 mM NaCl, 25 mM Tris-HCl, 3 mM MgCl2, 0.05% Tween-20, pH 8.0). The ligand C10-AMP used in MST assays was prepared by an equal mixture of C10 and ATP. In general, an NT.115 Monolith instrument (Nano Temper Technology, Germany) was integrated, of which the routine parameters included a RED/LED (20%) excitation power along with 60% laser power for excitation. Then, the protein samples were siphoned into MST Premium Coated capillaries for the determination of binding affinity at room temperature. The final concentrations of different AasS samples were 40 nM for WT, and 180 nM for D411A, respectively. The mixture of C10/ATP was diluted in a gradient (from 0.15 nM to 5.0 μM). Three independent MST experiments were conducted here. The dissociation constants (Kd) were calculated using the software MO. Affinity Analysis v2.3. Of note, this was largely dependent on the KD model with a 1:1 stoichiometry per binding partner.

[3] = target: T1, AasS; test: Michaelis-Menten curves of AasS reaction with C10-AMS supplemented; type: biochemical
Description: To ascertain this hypothesis, we set up three combinations of AasS reaction with the varied order of C10-AMS inhibitor added in relative to C10 substrate. Namely, these included (i) addition of C10-AMS after C10 pre-incubation (S1B Fig), (ii) simultaneous addition of C10-AMS and C10 (S1C Fig), and (iii) supplementation of C10-AMS prior to C10 (S1D Fig). […] Next, we generated Michaelis-Menten curves of AasS enzyme to evaluate the inhibitory pattern of C10-AMS against ATP cofactor and C10 acyl substrate (S2 Fig).
Supplementary file ppat.1012376.s004.tif: S2 Fig Use of Michaelis-Menten curves to evaluate inhibition mode of AasS by the C10-AMS molecule. Michaelis-Menten curves of AasS reaction for the ATP cofactor (A) and C10 acyl substrate (C), on the condition of C10-AMS inhibitor supplemented at varied concentrations. C10-AMS was added at different level (ranging from 0, 125, 250, to 500 nM). Based on the dogma of Michaelis-Menten equation, a number of crosspoints of two vertically-intersecting dashed-lines (indicated with arrows) were given to determine the values of Km and Vmax. Of note, the coordinate (x,y) of the resultant crosspoint denotes the number (Km, Vmax /2). The values of Km and Vmax for AasS inhibited by C10-AMS in relative to ATP cofactor (B) and C10 substrate (D). […] Designations: Km, Michaelis constant; Vmax, Maximum velocity. (TIF)

[4] = increasing C10-AMS while varying ATP

CCCCCCCCCC(=O)NS(=O)(=O)OC[C@H]1O[C@@H](n2cnc3c(N)ncnc32)[C@H](O)[C@@H]1O [C10-AMS]
inhibition of C10 fatty acylation, Average (S1E Fig, second block; order of addition not printed) [1]: 64.1924% and 78.0145% and 84.8528% and 86.8699%
inhibition of C10 fatty acylation, Average (S1E Fig, third block; order of addition not printed) [1]: 82.6351% and 89.1845% and 93.1119% and 91.664%
pKi ([1]; C10 substrate fixed at 80 μM, AasS 3 nM, semi-quantitative gel assay, read-out: inhibition constant (Ki) of C10-AMS vs AasS): ~6.21 and 6.21 and ~6.22
pKi ([1]; E-C7 600 μM, AasS 31.25 nM, read-out: Ki for E-C7 acyl substrate): ~5.53 and 5.53
pKi ([1]; condition 1#, C10 80 μM, AasS 3 nM, read-out: Ki, order-of-addition experiment): 6.17
pKi ([1]; condition 2#, C10 80 μM, AasS 3 nM, read-out: Ki, order-of-addition experiment): 5.86
Average (DeltaFNorm), AasS(WT) ([2]; Dose 1.52588e-10): 0.4239
Average (DeltaFNorm), AasS(WT) ([2]; Dose 3.05176e-10): 1.688
Average (DeltaFNorm), AasS(WT) ([2]; Dose 6.10352e-10): 0.6276
Average (DeltaFNorm), AasS(WT) ([2]; Dose 1.2207e-9): -0.2133
Average (DeltaFNorm), AasS(WT) ([2]; Dose 2.44141e-9): -0.7539
Average (DeltaFNorm), AasS(WT) ([2]; Dose 4.88281e-9): -0.9203
Average (DeltaFNorm), AasS(WT) ([2]; Dose 9.76563e-9): -2.469
Average (DeltaFNorm), AasS(WT) ([2]; Dose 1.95313e-8): -0.4913
Average (DeltaFNorm), AasS(WT) ([2]; Dose 3.90625e-8): -0.5142
Average (DeltaFNorm), AasS(WT) ([2]; Dose 7.8125e-8): -1.198
Average (DeltaFNorm), AasS(WT) ([2]; Dose 1.5625e-7): -2.398
Average (DeltaFNorm), AasS(WT) ([2]; Dose 3.125e-7): -4.638
Average (DeltaFNorm), AasS(WT) ([2]; Dose 6.25e-7): -6.534
Average (DeltaFNorm), AasS(WT) ([2]; Dose 1.25e-6): -7.36
Average (DeltaFNorm), AasS(WT) ([2]; Dose 2.5e-6): -8.128
Average (DeltaFNorm), AasS(WT) ([2]; Dose 5e-6): -7.529
AasS reaction rate, Michaelis-Menten curve for ATP, Average ([3]; 125 nM C10-AMS, ATP 0.125 (unit not given)): 0.1701
AasS reaction rate, Michaelis-Menten curve for ATP, Average ([3]; 125 nM C10-AMS, ATP 0.25): 0.2829
AasS reaction rate, Michaelis-Menten curve for ATP, Average ([3]; 125 nM C10-AMS, ATP 0.5): 0.452
AasS reaction rate, Michaelis-Menten curve for ATP, Average ([3]; 125 nM C10-AMS, ATP 1): 0.6373
AasS reaction rate, Michaelis-Menten curve for ATP, Average ([3]; 125 nM C10-AMS, ATP 2): 0.8268
AasS reaction rate, Michaelis-Menten curve for C10 acyl substrate, Average ([3]; 125 nM C10-AMS, C10 5 (unit not given)): 0.6857
AasS reaction rate, Michaelis-Menten curve for C10 acyl substrate, Average ([3]; 125 nM C10-AMS, C10 10): 0.7781
AasS reaction rate, Michaelis-Menten curve for C10 acyl substrate, Average ([3]; 125 nM C10-AMS, C10 20): 0.8956
AasS reaction rate, Michaelis-Menten curve for C10 acyl substrate, Average ([3]; 125 nM C10-AMS, C10 40): 0.924
AasS reaction rate, Michaelis-Menten curve for ATP, Average ([3]; 250 nM C10-AMS, ATP 0.125 (unit not given)): 0.1042
AasS reaction rate, Michaelis-Menten curve for ATP, Average ([3]; 250 nM C10-AMS, ATP 0.25): 0.1505
AasS reaction rate, Michaelis-Menten curve for ATP, Average ([3]; 250 nM C10-AMS, ATP 0.5): 0.2695
AasS reaction rate, Michaelis-Menten curve for ATP, Average ([3]; 250 nM C10-AMS, ATP 1): 0.5022
AasS reaction rate, Michaelis-Menten curve for ATP, Average ([3]; 250 nM C10-AMS, ATP 2): 0.6244
AasS reaction rate, Michaelis-Menten curve for C10 acyl substrate, Average ([3]; 250 nM C10-AMS, C10 5 (unit not given)): 0.3359
AasS reaction rate, Michaelis-Menten curve for C10 acyl substrate, Average ([3]; 250 nM C10-AMS, C10 10): 0.4164
AasS reaction rate, Michaelis-Menten curve for C10 acyl substrate, Average ([3]; 250 nM C10-AMS, C10 20): 0.4772
AasS reaction rate, Michaelis-Menten curve for C10 acyl substrate, Average ([3]; 250 nM C10-AMS, C10 40): 0.4877
AasS reaction rate, Michaelis-Menten curve for ATP, Average ([3]; 500 nM C10-AMS, ATP 0.125 (unit not given)): 0.0721
AasS reaction rate, Michaelis-Menten curve for ATP, Average ([3]; 500 nM C10-AMS, ATP 0.25): 0.08914
AasS reaction rate, Michaelis-Menten curve for ATP, Average ([3]; 500 nM C10-AMS, ATP 0.5): 0.1634
AasS reaction rate, Michaelis-Menten curve for ATP, Average ([3]; 500 nM C10-AMS, ATP 1): 0.2728
AasS reaction rate, Michaelis-Menten curve for ATP, Average ([3]; 500 nM C10-AMS, ATP 2): 0.3695
AasS reaction rate, Michaelis-Menten curve for C10 acyl substrate, Average ([3]; 500 nM C10-AMS, C10 5 (unit not given)): 0.2278
AasS reaction rate, Michaelis-Menten curve for C10 acyl substrate, Average ([3]; 500 nM C10-AMS, C10 10): 0.2903
AasS reaction rate, Michaelis-Menten curve for C10 acyl substrate, Average ([3]; 500 nM C10-AMS, C10 20): 0.3259
AasS reaction rate, Michaelis-Menten curve for C10 acyl substrate, Average ([3]; 500 nM C10-AMS, C10 40): 0.3858
change of Michaelis constant (Km) of AasS [3, 4]: increase
change of maximum velocity (Vmax) of AasS [3, 4]: declined
mode of inhibition against ATP ligand ([3]; varying ATP, C10-AMS 0-500 nM): mixed inhibition
inhibitory pattern for the C10 acyl substrate ([3]; varying C10, C10-AMS 0-500 nM): mixed type of inhibition

— PMC11271967, “An inhibitory mechanism of AasS, an exogenous fatty acid scavenger: Implications for re-sensitization of FAS II antimicrobials” (PLOS Pathogens, 2024)
